Assay [1] can be described thus: LCMS analysis of drug release by tetrazines. The conditions noted are these: tetrazine 20 μM, TCO-MMAE 10 μM in PBS. Here is the method:
A solution of each tetrazine (20 μM final concentration) in PBS is mixed with TCO-MMAE (10 μM final concentration). The solution is mixed thoroughly and an aliquot removed at the appropriate time for analysis by LCMS.

Assay [2] has as its system NCI-N87 xenograft. The assay can be described thus: Efficacy study in subcutaneous NCI-N87 xenograft model in CB17 SCID mice. It counts as in vivo, mice (Mus musculus). The conditions noted are these: for TGI: P<0.05 vs vehicle; for mean tumor size on day 35: vehicle 1009 mm^3. As to the method: Methods: 110 CB17 SCID female mice (Mus musculus; age: 6-8 weeks; body weight: 18-22 g; Shanghai LingChang Biotech Co., LTD) were inoculated subcutaneously at right flank with NCI-N87 cells (3×10^6 cells was suspended in 0.2 mL mixture of 1640 with (1640: Matrigel=1:1) BD Matrigel for tumor development). After 7 days inoculation, 70 animals were divided into 8 groups with 10 animals in group 1, 2, 5, 6, 7 and 8, and with 5 animals in group 3 and 4 using stratified random grouping based on their body weight and tumor volume. The treatments were started from the mean tumor size reached to 158 mm^3 (106-221 mm^3) for these 70 mice. Group 1: Vehicle, i.v., QD×3×2 weeks. Group 2: MMAE, 0.25 mpk, i.v., QW×2 weeks. […] Group 4: Compound A, 20 mpk, i.v., QD×3×2 weeks. […] Group 7: SQL70, 100 μL, i.t.×1 dose+Compound A, 1.9 mpk, i.v., QD×5. Group 8: T-DM1, 3 mpk, i.v., QW×2 weeks. The tumor sizes and body weight were measured twice a week during the treatment. The dosing schedule was finished on day PG-D10. The entire study was terminated on PG-D37 and collected all the tumor samples for group 5 and 6, and 3 tumors/group for group 1 and 2.
Experimental Methods and Procedures: Cell preparation and implantation: The NCI-N87 (Gastric carcinoma, ATCC® CRL-5822™, Lot No. 7686255) cells were maintained in vitro as a monolayer culture in RPMI-1640 medium supplemented with 10% heat inactivated fetal bovine serum, 100 U/mL penicillin and 100 μg/mL streptomycin at 37° C. in an atmosphere of 5% CO2 in air. The tumor cells were routinely sub-cultured per 5 days by trypsin-EDTA treatment. The cultured NCI-N87 cells were harvested, re-suspended in base medium at a density of 1.5×10^7 cells/mL with viability >90%. Each mouse was inoculated subcutaneously at the right flank with 3×10^6 in 0.2 mL mixture of 1640 with (1640: Matrigel=1:1) BD Matrigel for tumor development.
Randomization and administration: The treatments were started from the mice were grouped based on their mean tumor size reached 158 mm^3 (106-221 mm^3) for group 1-8. Each group consisted of 10 or 5 mice. The test article was administrated to the mice according to the regimen as shown in the experimental design table (Table 4).
Tumor Measurements and Endpoints: The major endpoint is to see if the tumor growth can be delayed or mice can be cured. […] The tumor sizes were then used for the calculations of both tumor growth inhibition (TGI) values.
The T/C value (in percent) is an indication of antitumor effectiveness, T/C (%)=RTVTreatment/RTVControl×100% (RTVTreatment: the mean RTV of the treatment group; RTVControl: the mean RTV of the vehicle treated group). RTV (relative tumor volume)=TVDayN/TVDay0. TVDayN and TVDay0 is the tumor volume on day N and Day 0 respectively. T/C (%)≤42% is considered as significant antitumor activity and <10% is considered as highly significant antitumor activity by the United States National Cancer Institute criteria.
Statistical Analysis: The tumor volume between different groups was analyzed by two-way repeated measures ANOVA followed by the Tukey's post hoc test. All data were analyzed using GraphPad Prism 6.0. P<0.05 is considered to be statistically significant.

The mark [3] stands for this setting: Group 4: Compound A 20 mpk i.v. QD×3×2 weeks, day 35.
The mark [4] stands for this setting: Group 2: MMAE 0.25 mpk i.v. QW×2 weeks, day 35.

The text below walks through data of patent publication US20250186592A1, “TETRAZINE CONJUGATES FOR IN VIVO TARGETED DELIVERY OF A PAYLOAD” (Tambo, Inc., priority 2021, published 2025).

Square brackets hold non-standard residues; d marks the D form. Peptide text beside a SMILES is read from it. * marks the point of attachment. Dolaproine = CO[C@@H]([C@@H]1CCCN1)[C@@H](C)C(=O)O; Dil = CC[C@H](C)[C@H](NC)[C@@H](CC(=O)O)OC; X1 = C[C@@H](N*)[C@@H](O)c1ccccc1; NMeV = CN[C@H](C(=O)O)C(C)C

As for `Cc1nnc(-c2ncccn2)nn1`, in assay [1], the “% TCO-MMAE consumed (1 h)” value is listed as 100% and the “% MMAE released (24 h)” value turned out to be 29%.

For the compound `Cc1nnc(-c2cn(C)cn2)nn1`, in assay [1], the “% TCO-MMAE consumed (1 h)” value turned out to be 74% and the “% MMAE released (24 h)” value amounted to 40%.

On to `Cc1nnc(-c2cocn2)nn1`, for which, in assay [1], the “% TCO-MMAE consumed (1 h)” value came out at 42% and the “% MMAE released (24 h)” value was 62%.

For the compound `Cc1nnc(-c2ccc(C(F)(F)F)c(CN)c2)nn1`, in assay [1], the “% TCO-MMAE consumed (1 h)” value is reported as 100% and the “% MMAE released (24 h)” value is listed as 46%.

For the compound `Cc1nnc(-c2ccc(CN)c(C(F)(F)F)c2)nn1`, in assay [1], the “% TCO-MMAE consumed (1 h)” value is on record as 100% and the “% MMAE released (24 h)” value is listed as 51%.

In the case of `Cc1nnc(-c2ccccn2)nn1`, in assay [1], the “% TCO-MMAE consumed (1 h)” value came to 100% and the “% MMAE released (24 h)” value is 28%.

Regarding `Cc1nnc(-n2cccn2)nn1`, in assay [1], the “% TCO-MMAE consumed (1 h)” value is 81% and the “% MMAE released (24 h)” value was 35%.

As usually defined, the T/C is the result in the treated group divided by that in the control group, in per cent. By TGI is commonly meant how far tumour growth fell short of that in controls. Low values mean a weaker effect on the tumour, high ones a stronger effect on the tumour. In assay [2] (setting [3]), `CC[C@H](C)[C@@H](C(CC(=O)N1CCC[C@H]1[C@H](OC)[C@@H](C)C(=O)N[C@H](C)[C@@H](O)c1ccccc1)OC)N(C)C(=O)[C@@H](NC(=O)[C@H](C(C)C)N(C)C(=O)O[C@H]1/C=C/CC[C@@](C)(C(=O)O)CC1)C(C)C` (stereo partly drawn) [Compound A] had a T/C of 62.12% and a TGI of 41.74%. Moreover, the “mean tumor size on day 35” value in assay [2] (Group 4: Compound A 20 mpk i.v. QD×3×2 weeks, day 35 after grouping) is listed as 653 mm^3.

In assay [2] (setting [4]), `CC[C@H](C)[C@@H]([C@@H](CC(=O)N1CCC[C@H]1[C@H](OC)[C@@H](C)C(=O)N[C@H](C)[C@@H](O)c1ccccc1)OC)N(C)C(=O)[C@@H](NC(=O)[C@@H](NC)C(C)C)C(C)C` [MMAE] (H-[NMeV]V[Dil][Dolaproine]-X1) registered a T/C of 57.50% and a TGI of 49.68%. The “mean tumor size on day 35” value in assay [2] (Group 2: MMAE 0.25 mpk i.v. QW×2 weeks, day 35 after grouping) is listed as 586 mm^3.

For the compound T-DM1, in assay [2] (Group 8: T-DM1 3 mpk i.v. QW×2 weeks, day 35), the “mean tumor size on day 35” value is 873 mm^3.
